Results from patent publication US8722027B2, “Method for preparing broussonetia kazinoki extract” (Amorepacific Corporation, priority 2010, dated 2014).
≈ marks a conversion by molar mass, not a printed value. Blank lines part the entries; values can stand above or below the compound they belong to.

Experiments:
tyrosinase [1] = test: Tyrosinase inhibitory effect (method of Test Example 1-2); type: biochemical; details: 50 mg sample in 100 ml ethanol, diluted 10-fold; 50 μl sample solution; 37° C., 10 minutes; absorbance 490 nm
Description: 50 mg of a sample to be evaluated for tyrosinase inhibitory activity was dissolved in ethanol to make 100 ml of a solution. 10 ml of the solution was taken, and ethanol was added thereto to make 100 ml of a sample solution. 500 μl of a substrate solution, 450 μl of purified water and 50 μl of the sample solution are added to and mixed with 500 μl of buffer, and 50 μl of an enzyme (tyrosinase) solution is added to the mixture. The resulting mixture is allowed to react at 37° C. for 10 minutes, and then immediately allowed to stand on ice for 5 minutes, and the absorbance at 490 nm is measured. The tyrosinase inhibitory effect of the sample is evaluated based on the absorbance of the sample compared to the absorbance of a blank sample.

B16 melanoma cells [2] = test: Cytotoxicity measurement (MTT assay); type: cell-based, mouse
Description: (§1) B16 melanoma cells from C57BL/6J (black, a/a) mouse melanoma were purchased from the Cell Line Bank. The cells were cultured in DMEM medium containing 10% fetal bovine serum (LONZA), 50 U/ml of penicillin and 50 μg/ml of […] streptomycin under the conditions of 37° C. and 10% CO2.
B16 melanoma cells were seeded in a 96-well plate at a density of 1×10^4 cells/well and cultured for 1 day. The medium was replaced with fresh medium containing each of arbutin and various concentration of the composition of Preparation Example 6, and the cells were cultured again for 24 hours. 50 μl of an MIT solution obtained by dissolving MIT in cell culture medium at a concentration of 2 mg/ml was added to each well, and medium was added to each well to a final volume of 200 μl, after which the cells were incubated for 3-4 hours. The medium was removed, and the produced formazan crystals were dissolved in 150 μl of DMSO, after which the absorbance of the formazan solution was measured at 540 nm. The measured absorbance was expressed as a percentage relative to the control (not treated with the test material) to evaluate whether the test sample has cytotoxicity.

B16 melanoma cells [3] = test: Inhibition of melanin production (α-MSH stimulated); type: cell-based, mouse; details: 100 μg/ml, 1 μM α-MSH
Description: as §1
B16 melanoma cells were seeded in a 24-well plate at a density of 4×10^4 cells/well and cultured overnight so as to adhere well to the plate. Then, medium containing 1 μM α-MSH for promoting melanin production and each concentration of the test sample of Preparation Example 6 or arbutin was added to each well. The plate was incubated for 72 hours, and then 200 μl of the cell culture medium was taken and the absorbance at 405 nm was measured. Based on the measurement, the amount of melanin was calculated. The calculated amount of melanin was expressed as a percentage relative to the control (not treated with the test material), and the results are shown in Table 9 below.

mushroom tyrosinase = test: Inhibition of tyrosinase activity (L-tyrosine substrate); type: biochemical
Description: First, as test samples, arbutin and the composition of Preparation Example 6 were prepared at various concentrations, and an enzyme was added thereto in an amount corresponding to 10 units, after which 0.1M phosphate buffer was added thereto to a final volume of 100 μl. 100 μl of 0.03% L-tyrosine substrate solution was added thereto, and then immediately, the absorbance at 475 nm was measured. Then, the mixture was allowed to react at 37° C. for 10 minutes, after which it was placed on ice to stop the reaction, and the absorbance was measured again.

tyrosinase [4] = molecular target: T1, tyrosinase (Homo sapiens, UniProt P14679); details: compared to kojic acid; known; cited from earlier work
T1 sequence (P14679 19-529): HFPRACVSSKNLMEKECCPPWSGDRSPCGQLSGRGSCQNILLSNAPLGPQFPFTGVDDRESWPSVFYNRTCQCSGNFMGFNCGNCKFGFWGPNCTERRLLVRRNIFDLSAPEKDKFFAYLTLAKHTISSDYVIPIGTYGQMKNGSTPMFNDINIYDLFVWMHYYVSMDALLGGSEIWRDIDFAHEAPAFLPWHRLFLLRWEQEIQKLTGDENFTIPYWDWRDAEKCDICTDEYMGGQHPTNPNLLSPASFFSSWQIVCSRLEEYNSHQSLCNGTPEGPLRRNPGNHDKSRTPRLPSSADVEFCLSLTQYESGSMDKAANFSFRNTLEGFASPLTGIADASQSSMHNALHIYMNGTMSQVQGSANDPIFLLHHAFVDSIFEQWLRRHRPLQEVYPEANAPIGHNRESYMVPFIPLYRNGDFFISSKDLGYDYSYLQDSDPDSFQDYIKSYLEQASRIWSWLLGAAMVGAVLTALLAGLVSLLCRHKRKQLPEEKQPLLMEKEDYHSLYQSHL

[5] = Partition coefficient in two-phase solvent system; type: physicochemical; details: hexane/ethyl acetate/methanol/water 5/5/5/2
Description: The partition coefficient of kazinol C was measured in the following manner First, 1 mg of the extract of Example 3 was placed in a 10-ml test tube, and 2 ml of each of the upper layer solution and lower layer solution of a two-phase solution system, which reached equilibrium, was added thereto, and the mixture was shaken intensively for 1 minute. After the two phases have reached equilibrium, 100 μl of each of the upper layer solution and the lower layer solution was taken, dried, dissolved in 1 ml of ethanol, and analyzed by HPLC. The value obtained by dividing the amount of kazinol C in the upper layer solution by the amount of kazinol C in the lower layer solution was determined as partition coefficient.

Tyrosinase inhibitory effect (%) (tyrosinase [1]): 80%
SMILES: O=c1cc(CO)occ1O [Control, kojic acid]

Inhibition (%) of tyrosinase activity (mushroom tyrosinase; 125 μg/ml): 38.1% | Inhibition (%) of tyrosinase activity (mushroom tyrosinase; 250 μg/ml): 56.5% | Inhibition (%) of tyrosinase activity (mushroom tyrosinase; 500 μg/ml): 87.7% | IC50 (μg/ml), tyrosinase activity (mushroom tyrosinase; mushroom tyrosinase 10 units, 37° C., 10 minutes): 209.6 µg/mL (≈ 770 µM)
SMILES: OC[C@H]1O[C@@H](Oc2ccc(O)cc2)[C@H](O)[C@@H](O)[C@@H]1O [Arbutin, arbutin]
% relative to control (MTT absorbance) (B16 melanoma cells [2]; 100 μg/ml, 24 hours): 95.1 ± 4.8% | Toxicity (%) (B16 melanoma cells [2]; 100 μg/ml, 24 hours): 4.9% | Cytotoxicity (in words) (B16 melanoma cells [2]; at a concentration of 100 μg/ml): no cytotoxicity | Inhibition (%) of melanin production (B16 melanoma cells [3]; 72 hours): 33.7% | Melanin % relative to control (B16 melanoma cells [3]; 72 hours): 66.3 ± 4.7% | inhibition at 100 µg/mL (B16 melanoma cells [3]; Mus musculus, B16, 72 h): 21.2%

Partition coefficient (upper layer / lower layer) [5]: 0.997
SMILES: C=CC(C)(C)c1cc(CCCc2cc(O)c(O)c(CC=C(C)C)c2CC=C(C)C)c(O)cc1O [kazinol C]
Tyrosinase inhibitory effect (in words) (tyrosinase [4]): excellent tyrosinase inhibitory effect compared to kojic acid
